Experiments:
Assay in all cases: In vitro cytotoxicity of peptide/siRNA complexes (MTS)
Conditions in all cases: 35% v/v DMSO
SK-OV-3 cells = format: cell-based, human
Experimental: (§1) This study aimed to assess these complexes’ potential as a delivery system for siRNA-mediated gene silencing in cancer cells. Our initial experiments involved the use of the MDA-MB-231 (Figure 6A), MCF-7 (Figure 6B), SK-OV-3 (Figure 7A), and HEK-293 (Figure 7B) cell lines for cell culture and in vitro cytotoxicity studies. After 72 h of incubation, we used an MTS test to determine the cytotoxicity of the developed peptides complexed with scrambled siRNA. The peptide/siRNA complexes were applied to the cells at various concentrations and N/P ratios (from 10 to 100). […] This finding corroborates the results from our previous reports.
(§2) The cell lines selected for this study included MDA-MB-231 (ATCC No. HTB-26, triple-negative breast cancer cell line), MCF-7 (ATCC No. HTB-22, breast adenocarcinoma cells), HEK-293 (ATCC No. CRL-1573, normal kidney cells), and SK-OV-3 (ATCC No. HTB-77, human epithelial ovary adenocarcinoma cells). […]
(§3) The cytotoxicity of the synthesized oleyl-conjugated peptides complexed with scrambled siRNA was evaluated in vitro using the aforementioned cell lines. […]
(§4) For the assay, 10,000 cells per 0.1 mL were seeded into each well of a 96-well plate using a multichannel pipette and allowed to adhere for 24 h in a standard cell culture incubator. Cell health and confluency were assessed after the initial 24 h period. […]

MDA-MB-231 cells = format: cell-based
Experimental: as §1, §2, §3, §4

MCF-7 cells = format: cell-based
Experimental: as §1, §2, §3, §4

HEK-293 cells = format: cell-based
Experimental: as §1
The cell lines selected for this study included MDA-MB-231 (ATCC No. HTB-26, triple-negative breast cancer cell line), MCF-7 (ATCC No. HTB-22, breast adenocarcinoma cells), HEK-293 (ATCC No. CRL-1573, normal kidney cells), and SK-OV-3 (ATCC No. HTB-77, human epithelial ovary adenocarcinoma cells).
as §3, §4

Measured: cells to which the positive control was cytotoxic

C[S+](C)[O-] [DMSO]
over 70%: all assays above

Source: paper PMC11357397, “Design, Synthesis, and Evaluation of Oleyl-WRH Peptides for siRNA Delivery” (Pharmaceuticals, 2024)
